Measured values reported in PubChem BioAssay AID1259407 (Chemical Carcinogenesis Research Information System (CCRIS), 2018).
Active and inactive are the calls of the source. The rule behind the calls is not given here.

Test system: CCRIS mutagenicity, Ames/micronucleus/aberration tests
Test: CCRIS mutagenicity studies
[1] = Test System: AMES SALMONELLA TYPHIMURIUM, Strain/Indicator: TA100, Metabolic Activation: RAT, LIVER, S-9, AROCLOR 1254, Method: STANDARD PLATE
[2] = Test System: AMES SALMONELLA TYPHIMURIUM, Strain/Indicator: TA98, Metabolic Activation: NONE, Method: PREINCUBATION
[3] = Test System: AMES SALMONELLA TYPHIMURIUM, Strain/Indicator: TA100, Metabolic Activation: NONE, Method: PREINCUBATION
[4] = Test System: AMES SALMONELLA TYPHIMURIUM, Strain/Indicator: TA98, Metabolic Activation: NONE, Method: STANDARD PLATE
[5] = Test System: AMES SALMONELLA TYPHIMURIUM, Strain/Indicator: TA100, Metabolic Activation: NONE, Method: STANDARD PLATE

Structure (SMILES): c1cnc2c(c1)ccc1c3cccnc3ccc12
- mutagenic call (Test System: AMES SALMONELLA TYPHIMURIUM, Strain/Indicator: TA100, Metabolic Activation: POOLED HUMAN LIVER MICROSOMES, Method: PREINCUBATION): active; positive
- mutagenic call (Test System: AMES SALMONELLA TYPHIMURIUM, Strain/Indicator: TA100, Metabolic Activation: RAT, LIVER, S-9, PHENOBARBITAL AND 5,6-BENZOFLAVONE, Method: PREINCUBATION): active; positive
- mutagenic call (Test System: LACZ TRANSGENIC MOUSE (MUTATM MOUSE), Strain/Indicator: LACZ MUTANT FREQUENCY, Method: LIVER, SPLEEN, LUNG, KIDNEY, BONE MARROW, COLON HARVESTED 7 D AFTER LAST DOSE, DNA ISOLATED): active; positive; g:c to t:a transversions in all organs

Structure (SMILES): COc1c2cc3c(cc2nc2occc12)OCO3
- mutagenic call (Test System: AMES SALMONELLA TYPHIMURIUM, Strain/Indicator: TA98, Metabolic Activation: RAT, LIVER, S-9, PHENOBARBITAL, Method: STANDARD PLATE): active; positive
- mutagenic call (Test System: AMES SALMONELLA TYPHIMURIUM, Strain/Indicator: TA100, Metabolic Activation: RAT, LIVER, S-9, PHENOBARBITAL, Method: STANDARD PLATE): active; positive

Structure (SMILES): C[C@@H]1CC2c3cc(Br)cc4c3c(cn4CC3CC3)C[C@H]2N(C)C1 (stereo partly drawn)
- mutagenic call [1]: inactive; negative

Structure (SMILES): CCCCCN
- mutagenic call (Test System: AMES SALMONELLA TYPHIMURIUM, Strain/Indicator: TA98, Metabolic Activation: HAMSTER, LIVER, S-9, AROCLOR 1254 (10%), Method: PREINCUBATION): inactive; negative
- mutagenic call [2]: inactive; negative
- mutagenic call (Test System: AMES SALMONELLA TYPHIMURIUM, Strain/Indicator: TA98, Metabolic Activation: RAT, LIVER, S-9, AROCLOR 1254 (10%), Method: PREINCUBATION): inactive; negative
- mutagenic call (Test System: AMES SALMONELLA TYPHIMURIUM, Strain/Indicator: TA100, Metabolic Activation: HAMSTER, LIVER, S-9, AROCLOR 1254 (10%), Method: PREINCUBATION): inactive; negative
- mutagenic call [3]: inactive; negative
- mutagenic call (Test System: AMES SALMONELLA TYPHIMURIUM, Strain/Indicator: TA100, Metabolic Activation: RAT, LIVER, S-9, AROCLOR 1254 (10%), Method: PREINCUBATION): inactive; negative
- mutagenic call (Test System: AMES SALMONELLA TYPHIMURIUM, Strain/Indicator: TA1535, Metabolic Activation: HAMSTER, LIVER, S-9, AROCLOR 1254 (10%), Method: PREINCUBATION): inactive; negative
- mutagenic call (Test System: AMES SALMONELLA TYPHIMURIUM, Strain/Indicator: TA1535, Metabolic Activation: NONE, Method: PREINCUBATION): inactive; negative
- mutagenic call (Test System: AMES SALMONELLA TYPHIMURIUM, Strain/Indicator: TA1535, Metabolic Activation: RAT, LIVER, S-9, AROCLOR 1254 (10%), Method: PREINCUBATION): inactive; negative
- mutagenic call (Test System: AMES SALMONELLA TYPHIMURIUM, Strain/Indicator: TA1537, Metabolic Activation: HAMSTER, LIVER, S-9, AROCLOR 1254 (10%), Method: PREINCUBATION): inactive; negative
- mutagenic call (Test System: AMES SALMONELLA TYPHIMURIUM, Strain/Indicator: TA1537, Metabolic Activation: NONE, Method: PREINCUBATION): inactive; negative
- mutagenic call (Test System: AMES SALMONELLA TYPHIMURIUM, Strain/Indicator: TA1537, Metabolic Activation: RAT, LIVER, S-9, AROCLOR 1254 (10%), Method: PREINCUBATION): inactive; negative

Structure (SMILES): ClCc1ccc2c3c(cccc13)-c1ccccc1-2
- mutagenic call [4]: active; positive
- mutagenic call [5]: active; positive

Structure (SMILES): COc1cc([C@H]2OC[C@H]3[C@@H]2CO[C@@H]3c2cc(OC)c(OC)c(OC)c2)cc(OC)c1OC
- mutagenic call (Test System: AMES SALMONELLA TYPHIMURIUM, Strain/Indicator: TA97A, Metabolic Activation: NONE, Method: STANDARD PLATE): inactive; negative
- mutagenic call (Test System: AMES SALMONELLA TYPHIMURIUM, Strain/Indicator: TA97A, Metabolic Activation: RAT LIVER S-9 (AROCLOR), Method: STANDARD PLATE): inactive; negative
- mutagenic call [4]: inactive; negative
- mutagenic call (Test System: AMES SALMONELLA TYPHIMURIUM, Strain/Indicator: TA98, Metabolic Activation: RAT LIVER S-9 (AROCLOR), Method: STANDARD PLATE): inactive; negative
- mutagenic call [5]: inactive; negative
- mutagenic call (Test System: AMES SALMONELLA TYPHIMURIUM, Strain/Indicator: TA100, Metabolic Activation: RAT LIVER S-9 (AROCLOR), Method: STANDARD PLATE): inactive; negative
- mutagenic call (Test System: AMES SALMONELLA TYPHIMURIUM, Strain/Indicator: TA102, Metabolic Activation: NONE, Method: STANDARD PLATE): inactive; negative
- mutagenic call (Test System: AMES SALMONELLA TYPHIMURIUM, Strain/Indicator: TA102, Metabolic Activation: RAT LIVER S-9 (AROCLOR), Method: STANDARD PLATE): inactive; negative
- mutagenic call (Test System: AMES SALMONELLA TYPHIMURIUM, Strain/Indicator: TA1535, Metabolic Activation: NONE, Method: STANDARD PLATE): inactive; negative
- mutagenic call (Test System: AMES SALMONELLA TYPHIMURIUM, Strain/Indicator: TA1535, Metabolic Activation: RAT LIVER S-9 (AROCLOR), Method: STANDARD PLATE): inactive; negative

Structure (SMILES): COCC(O)Cn1cc([N+](=O)[O-])nc1Cl (stereo not drawn)
- mutagenic call [4]: inactive; negative
- mutagenic call (Test System: AMES SALMONELLA TYPHIMURIUM, Strain/Indicator: TA98, Metabolic Activation: RAT, LIVER, S-9, Method: STANDARD PLATE): active; positive
- mutagenic call [5]: active; positive
- mutagenic call (Test System: AMES SALMONELLA TYPHIMURIUM, Strain/Indicator: TA100, Metabolic Activation: RAT, LIVER, S-9, Method: STANDARD PLATE): active; positive

Structure (SMILES): Cn1ccnc1[N+](=O)[O-]
- mutagenic call [5]: active; positive

Structure (SMILES): COc1ccc2c3c(cccc13)OC([N+](=O)[O-])=C2
- mutagenic call [4]: inactive; negative
- mutagenic call (Test System: AMES SALMONELLA TYPHIMURIUM, Strain/Indicator: TA98, Metabolic Activation: S-9, Method: STANDARD PLATE): inactive; negative
- mutagenic call [5]: active; positive
- mutagenic call (Test System: AMES SALMONELLA TYPHIMURIUM, Strain/Indicator: TA100, Metabolic Activation: S-9, Method: STANDARD PLATE): inactive; negative

Structure (SMILES): O=P(O)(O)CCCl
- mutagenic call (End Point: In vitro chromosomal aberrations, Test System: Chinese hamster ovary (CHO-WBL) cells, Metabolic Activation: None): inactive; negative
- mutagenic call (End Point: In vitro chromosomal aberrations, Test System: Chinese hamster ovary (CHO-WBL) cells, Metabolic Activation: Rat, Liver, S-9, Aroclor 1254): inactive; negative
- mutagenic call (Test System: Chinese hamster ovary cells, Strain/Indicator: CHO-K1-BH4 (HGPRT)/6-Thioguanine, Metabolic Activation: None, Method: Suspension/Plate?): inactive; negative (an increase in mutation frequency at 2.5 mg/ml not confirmed in repeat
- mutagenic call (Test System: Chinese hamster ovary cells, Strain/Indicator: CHO-K1-BH4 (HGPRT)/6-Thioguanine, Metabolic Activation: Rat, Liver, S-9, Aroclor 1254, Method: Suspension/Plate?): inactive; negative (an increase in mutation frequency at 2.5 mg/ml not confirmed in repeat

Structure (SMILES): O=C(/C=C/c1ccccc1)c1ccccc1
- mutagenic call [4]: inactive; negative
- mutagenic call (Test System: AMES SALMONELLA TYPHIMURIUM, Strain/Indicator: TA98, Metabolic Activation: RAT, LIVER, S-9, AROCLOR 1254, Method: STANDARD PLATE): inactive; negative
- mutagenic call [3]: inactive; negative
- mutagenic call [5]: inactive; negative
- mutagenic call (Test System: AMES SALMONELLA TYPHIMURIUM, Strain/Indicator: TA100, Metabolic Activation: RAT, LIVER, S-9, AROCLOR 1254, Method: PREINCUBATION): inactive; negative
- mutagenic call [1]: inactive; negative

Structure (SMILES): CC1=C[C@]2(O[C@@H]3O[C@H](CO)[C@@H](O)[C@H](O)[C@H]3O)C[C@@H](C)C(=O)[C@@H]2[C@](C)(O)C12CC2
- mutagenic call [2]: active; positive
- mutagenic call (Test System: AMES SALMONELLA TYPHIMURIUM, Strain/Indicator: TA98, Metabolic Activation: NONE, Method: PREINCUBATION (PH 7.4)): inactive; negative
- mutagenic call (Test System: AMES SALMONELLA TYPHIMURIUM, Strain/Indicator: TA98, Metabolic Activation: NONE, Method: PREINCUBATION (PH 8.5)): active; positive
- mutagenic call (Test System: AMES SALMONELLA TYPHIMURIUM, Strain/Indicator: TA98, Metabolic Activation: S-9, Method: PREINCUBATION (PH 7.4)): inactive; negative
- mutagenic call [3]: active; positive
- mutagenic call (Test System: AMES SALMONELLA TYPHIMURIUM, Strain/Indicator: TA100, Metabolic Activation: NONE, Method: PREINCUBATION (PH 7.4)): inactive; negative
- mutagenic call (Test System: AMES SALMONELLA TYPHIMURIUM, Strain/Indicator: TA100, Metabolic Activation: NONE, Method: PREINCUBATION (PH 8.5)): active; positive
- mutagenic call (Test System: AMES SALMONELLA TYPHIMURIUM, Strain/Indicator: TA100, Metabolic Activation: S-9, Method: PREINCUBATION (PH 7.4)): inactive; negative
- mutagenic call (Test System: UDS RAT HEPATOCYTES, Strain/Indicator: THY INCORP, Metabolic Activation: NONE, Method: AUTORADIOGRAPHY): active; positive
